Reference: ChEMBL document CHEMBL1201862, “PubChem BioAssay data set” (2004)
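1) Cells in 96-well plates. 2) Compound, 48 h, 5 concentrations. 3) Linear interpolation between surrounding doses. 4) Unreached endpoint = highest concentration. GI50: concentration for 50% inhibition of growth.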 The source made the active and inactive calls. Cut-off read from the data, not from the text of the source: active = GI50 up to about 1.1 µM and inactive = higher.

Legend:
Experiment in all cases: NCI anticancer screen, dose series, 48 h
MDA-MB-231 = system: MDA-MB-231
CAKI-1 = system: CAKI-1
SR = system: SR
SNB-75 = system: SNB-75
SK-MEL-28 = system: SK-MEL-28
BT-549 = system: BT-549
SK-MEL-5 = system: SK-MEL-5
A498 = system: A498
SK-OV-3 = system: SK-OV-3
A549 = system: A549
OVCAR-5 = system: OVCAR-5
SK-MEL-2 = system: SK-MEL-2
OVCAR-4 = system: OVCAR-4
HCC 2998 = system: HCC 2998
HOP-62 = system: HOP-62
MDA-N = system: MDA-N
NCI/ADR-RES = system: NCI/ADR-RES
UACC-62 = system: UACC-62
LOX IMVI = system: LOX IMVI
SF-268 = system: SF-268

Row | SMILES | GI50 (MDA-MB-231) | GI50 (CAKI-1) | GI50 (SR) | GI50 (SNB-75) | GI50 (SK-MEL-28) | GI50 (BT-549) | GI50 (SK-MEL-5) | GI50 (A498) | GI50 (SK-OV-3) | GI50 (A549) | GI50 (OVCAR-5) | GI50 (SK-MEL-2) | GI50 (OVCAR-4) | GI50 (HCC 2998) | GI50 (HOP-62) | GI50 (MDA-N) | GI50 (NCI/ADR-RES) | GI50 (UACC-62) | GI50 (LOX IMVI) | GI50 (SF-268)
1 | CC(=O)NC(CCCCN(Cc1ccccc1)C(=O)N(CCCl)N=O)C(=O)NCc1ccccc1 (stereo not given) | 21.9 µM (inactive) | > 26.8 µM (inactive) | 1.1 µM (active) | 19.5 µM (inactive) | 45.7 µM (inactive) | 21.3 µM (inactive) | > 100 µM (inactive) | > 100 µM (inactive) | > 54.3 µM (inactive) | 22.1 µM (inactive) | > 67.6 µM (inactive) | 44.8 µM (inactive) | 68.1 µM (inactive) | > 100 µM (inactive) | 17 µM (inactive) | 14.9 µM (inactive) | 14.5 µM (inactive) | 3.15 µM (inactive) | 22.2 µM (inactive) | 3.48 µM (inactive)
2 | COc1cccc2c1-c1ccccc1[C@H](Nc1ccccc1)[C@@]2(C)O | 10.3 µM (inactive) | 4.1 µM (inactive) | 0.865 µM (active) | 2.28 µM (inactive) | 11.3 µM (inactive) | 8.41 µM (inactive) | 3.62 µM (inactive) | 8.95 µM (inactive) | 4.27 µM (inactive) | 7.5 µM (inactive) | 11.6 µM (inactive) | 6.12 µM (inactive) | 10.3 µM (inactive) | 7.26 µM (inactive) | 3.85 µM (inactive) | 1.71 µM (inactive) | 3.64 µM (inactive) | 9.12 µM (inactive) | 10.1 µM (inactive) | 5.71 µM (inactive)
3 | Cc1ccc(S(=O)(=O)N(CC(O)COc2ccccc2)c2ccccc2Cl)cc1 (stereo not given) | 14.6 µM (inactive) | 15.5 µM (inactive) | 13.9 µM (inactive) | 22.3 µM (inactive) | 15.6 µM (inactive) | 17.1 µM (inactive) | 14.7 µM (inactive) | 17.7 µM (inactive) | 23.8 µM (inactive) | 11.8 µM (inactive) | 23.3 µM (inactive) | 13.7 µM (inactive) | 12.4 µM (inactive) | 19.5 µM (inactive) | 20 µM (inactive) | 16.3 µM (inactive) | 16.8 µM (inactive) | 8.61 µM (inactive) | 17.3 µM (inactive) | 17.1 µM (inactive)
4 | O=C1C=CC(=O)c2c(O)c(N(CCCl)CCCl)c(Cl)c(O)c21 | 4.56 µM (inactive) | 4.66 µM (inactive) | 4.51 µM (inactive) | 7.8 µM (inactive) | > 5.6 µM (inactive) | 4.15 µM (inactive) | 4.59 µM (inactive) | 6.15 µM (inactive) | > 10 µM (inactive) | > 9.71 µM (inactive) | > 7.21 µM (inactive) | 4.78 µM (inactive) | 4.49 µM (inactive) | > 8.91 µM (inactive) | > 9.48 µM (inactive) | 4.28 µM (inactive) | 6.89 µM (inactive) | > 6.07 µM (inactive) | 4.49 µM (inactive) | 5.46 µM (inactive)
5 | CC1(C)[C@@H]2C[C@H]1c1cnc(-c3ccccn3)cc1C2[C@@H]1c2cc(-c3ccccn3)ncc2[C@@H]2C[C@H]1C2(C)C (stereo not given in full) | > 100 µM (inactive) | 70.5 µM (inactive) | 62.8 µM (inactive) | 55.8 µM (inactive) | 88.3 µM (inactive) | > 100 µM (inactive) | 49.7 µM (inactive) | 39.9 µM (inactive) | 73.6 µM (inactive) | 30.3 µM (inactive) | > 100 µM (inactive) | 68.9 µM (inactive) | 20.6 µM (inactive) | 45.7 µM (inactive) | 39.1 µM (inactive) | > 100 µM (inactive) | 37.7 µM (inactive) | 45 µM (inactive) | > 100 µM (inactive) | 29.3 µM (inactive)
6 | COc1cc2c(cc1OC)-c1[nH]c3ccc([N+](=O)[O-])cc3c1CC(=O)N2 | 4.15 µM (inactive) | 2.89 µM (inactive) | 0.278 µM (active) | 2.43 µM (inactive) | 6.19 µM (inactive) | 3.15 µM (inactive) | 1.58 µM (inactive) | 2.98 µM (inactive) | 3.15 µM (inactive) | 2.46 µM (inactive) | 3.78 µM (inactive) | 3.7 µM (inactive) | 3.19 µM (inactive) | 1.04 µM (active) | 3.1 µM (inactive) | 4.48 µM (inactive) | > 100 µM (inactive) | 5.4 µM (inactive) | 1.55 µM (inactive) | 0.881 µM (active)
7 | CC(C)OC(=O)c1cc(NC(=S)OC(C)C)ccc1Cl | 15.3 µM (inactive) | 15.1 µM (inactive) | 28.6 µM (inactive) | 19.6 µM (inactive) | 28.3 µM (inactive) | 18.2 µM (inactive) | 17.3 µM (inactive) | 25.9 µM (inactive) | 37 µM (inactive) | 25.2 µM (inactive) | 25.1 µM (inactive) | 22.4 µM (inactive) | 23.9 µM (inactive) | > 41.6 µM (inactive) | 90.4 µM (inactive) | 23.1 µM (inactive) | 20.7 µM (inactive) | 16.1 µM (inactive) | 17.2 µM (inactive) | 26.9 µM (inactive)
